The record followed here is patent US20120021434A1, “METHOD FOR TREATING B CELL REGULATED AUTOIMMUNE DISORDERS” (Synta Pharmaceuticals Corp., priority 2005, published 2012).

Common to all, as to assay type: cell-based
The test system of one test is p65. Put plainly: Western blot of THP-1 nuclear extracts: p65. The conditions noted are these: IFN-γ plus LPS or IFN-γ plus SAC. How it is done:
The THP-1 cell, Jurkat cell and RAW264.7 cell line were obtained from American Type Culture Collection (Manassas, Va.). The THP-1 Jurkat cells were cultured in RPMI 1640 (ATCC, Manassas, Va.), supplemented with 10% FCS (ATCC, Manassas, Va.), and 1% penicillin/Streptomycin (Gibco-BRL, New York, N.Y.). The RAW264.7 cells were cultured in DMEM (ATCC, Manassas, Va.) supplemented with 10% FCS (ATCC, Manassas, Va.), and 1% penicillin/Streptomycin (Gibco-BRL, New York, N.Y.). The cells were stimulated with human or murine recombinant IFNγ (100 ng/ml) for 10 h followed by LPS (1 μg/ml) or SAC (0.025%) CpG ([…]) in the presence or absence of Compound 50 at different concentrations for an additional incubation.
THP-1 cells were suspended in 20 volumes of buffer A containing 10 mM KCl, 10 mM HEPES (pH 7.9), 1 mM MgCl2, 1 mM dithiothreitol (DTT), 0.1% Nonidet p40 (NP-40), and 0.5 mM phenylmethylsulfonyl fluoride (PMSF) and homogenized and centrifuged at 10,000 rpm at 4C afor 5 min. […]
Of the transcription factors that have been analyzed, two factors, ICSBP and c-Rel, seem to be affected by Compound 4/Compound 50 treatment. […]

Another test addresses T1, c-Rel (Mus musculus, UniProt P15307).
T1 construct: nuclear extracts from RAW cells stimulated with LPS/IFNγ; endogenous in cells; host or cells: RAW264.7
Put plainly: Immunofluorescence of c-Rel nuclear accumulation in LPS-stimulated RAW264.7 cells. The conditions noted are these: 100 nM. On the procedure: (§1) We next examined whether compound 50 can block the accumulation of c-Rel in the nucleus of cells induced by LPS (FIG. 2). RAW264.7 cells cultured in DMEM with 10% BCS were split and seeded into 4-well chambered slides at 80,000 cells/well density. The cells were then treated with DMSO, Compound 50 (100 nM), LPS (Sigma, 5 μg/mL), LPS (5 μg/mL)+Compound 50 (100 nM) for 4 hours and fixed with 3% paraformaldehyde solution (1×PBS) after 1× quick rinse with 1×PBS. Fixed cells were permeablized with 0.2% TX100 and immunostained with anti-cRel antibody (SC70, Santa Cruz, 1:200 dilution) or anti-NF-κB p65 antibody (SC109, Santa Cruz, 1:100 dilution), and subsequently stained with Alexa Fluor 488 Goat-anti-Rabbit secondary antibody and DAPI (Molecular Probes, 1.1 μM). Images were obtained with CoolSNAP monochrome CCD camera on a Nikon inverted microscope TE300 using identical imaging parameters and were processed identically with Photoshop CS software. As observed previously, c-Rel localized to the cytoplasm in DMSO-treated cells and to the nucleus in LPS-treated cells. […] We also examined whether Compound 50 blocks the nuclear accumulation of another NF-κB/Rel family member, p65, in LPS-stimulated RAW cells (FIG. 3). As observed for c-Rel, p65 was localized to the cytoplasm in DMSO and Compound 50-treated cells and to the nucleus in LPS-stimulated cells. […]

The test system of another test is NF-κB p65. Put plainly: Immunofluorescence of p65 nuclear accumulation in LPS-stimulated RAW264.7 cells. The conditions noted are these: RAW264.7, LPS 5 μg/mL, 100 nM, 4 hours. On the procedure:
as §1

A further test concerns IκBα. Put plainly: Inducible degradation of IκBα (Western blot and FACS). The conditions noted are these: IFN-γ/LPS or IFN-γ/SAC, 500 nM, 30 min and 2 hrs. How it is done: (§2) IκB degradation is one of the steps in the signaling pathway of NF-κB dependent genes. The activity of Compound 50 in inducible degradation of IκBα and IκBβ was investigated in THP-1 cells using Western blot and FACS analysis. […] Similar results were observed from the Compound 50 pre-treatment samples in which Compound 50 was added 30 min before stimulation.
On the technique in general: In western blotting, separated proteins are transferred to a membrane and probed.

For another test, the system named is IκBβ. Kind of test: Inducible degradation of IκBβ (Western blot and FACS). The conditions noted are these: IFN-γ/LPS or IFN-γ/SAC, 500 nM, 30 min and 2 hrs. On the procedure:
as §2

The next test relates to p52. Put plainly: p52 nuclear translocation in IFNγ+LPS-stimulated THP1 cells (immunoblot). The conditions noted are these: 100 nM, 6 h. How it is done: RelB and p52 are two members of Rel family, which are preferentially complexed with each other. To determine the effect of Compound 50 on p52 and Rel-B nuclear translocation, THP1 cells were stimulated with IFNγ+LPS in either the presence or absence of 100 nM Compound 50 and the distribution of p52 and Rel-B was determined by immunoblotting of nuclear at 6 h post-treatment.

T1 sequence (P15307 whole entry): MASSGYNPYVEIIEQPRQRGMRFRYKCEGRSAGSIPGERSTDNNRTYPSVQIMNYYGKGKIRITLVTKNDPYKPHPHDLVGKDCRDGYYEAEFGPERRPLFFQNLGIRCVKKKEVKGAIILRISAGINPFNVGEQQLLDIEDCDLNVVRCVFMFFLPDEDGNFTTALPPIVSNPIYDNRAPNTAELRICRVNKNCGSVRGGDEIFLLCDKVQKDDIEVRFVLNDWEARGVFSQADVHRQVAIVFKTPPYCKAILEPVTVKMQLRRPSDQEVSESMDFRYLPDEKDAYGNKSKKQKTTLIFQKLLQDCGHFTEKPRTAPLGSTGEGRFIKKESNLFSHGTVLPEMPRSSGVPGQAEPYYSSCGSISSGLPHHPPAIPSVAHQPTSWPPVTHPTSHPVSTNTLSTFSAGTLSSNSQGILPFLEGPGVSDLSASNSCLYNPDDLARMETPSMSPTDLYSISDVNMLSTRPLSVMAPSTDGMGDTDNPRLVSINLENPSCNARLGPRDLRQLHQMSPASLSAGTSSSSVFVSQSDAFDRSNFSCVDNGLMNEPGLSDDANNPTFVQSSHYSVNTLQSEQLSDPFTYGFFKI

Take `Cc1cccc(/C=N/Nc2cc(N3CCOCC3)nc(OCCc3ccccn3)n2)c1` [Compound 50, N-(3-Methyl-benzylidene)-N′-[6-morpholin-4-yl-2-(2-pyridin-2-yl-ethoxy)-pyrimidin-4-yl]-hydrazine]: in the test on p65, the “nuclear p65 protein” value was “increased”. Moreover, on c-Rel (RAW264.7, LPS 5 μg/mL, 4 hours), the “LPS-induced accumulation of c-Rel in the nucleus” value is “inhibited”. On c-Rel (RAW264.7, absence of LPS, 4 h), the “nuclear/cytoplasmic distribution of c-Rel” value is recorded as “did not alter”. In addition, the “LPS-induced p65 nuclear accumulation” value in the test with NF-κB p65 is on record as “not blocked”. In the test with IκBα, the “amount of IκBα in the cytoplasm, with vs without compound” value is “no significant difference”. Further, the “amount of IκBβ in the cytoplasm, with vs without compound” value with IκBβ was “no significant difference”. In addition, the “nuclear p52” value in the test on p52 is “No significant difference”.
